Data as given in US20250195855A1, “INGESTIBLE DEVICE FOR DELIVERY OF THERAPEUTIC AGENT TO THE GASTROINTESTINAL TRACT” (BIORA THERAPEUTICS, INC., priority 2022, published 2025).

Legend:
[1] = parameters: species or system female Yucatan swine; settings: in vivo
Description: The above externally-triggered study was also performed using semaglutide, a glucagon-like-peptide-1 (GLP-1) receptor agonist that stimulates insulin secretion and suppress glucagon release. Devices filled with ˜0.96 mg of semaglutide were administrated by intraduodenal (ID) endoscopic placement and were externally triggered in the proximal small intestine of the female Yucatan swine. Plasma samples were then collected from 0 to 240 hours post-dose. Systemic concentrations of semaglutide were measured using LC-MS-MS to evaluate the PK of semaglutide with the OBDS device via ID administration (animals 1003-ID; 1004-ID; 1005-ID; 1009-ID; 10053-ID and 1055-ID in FIG. 87) compared with the IV control (animal 1015-IV in FIG. 87).
Seven out of eight (7/8) devices were successfully advanced through the pyloric sphincter via endoscopic placement and triggered in the proximal small intestine.

[2] = 40 mg bi-weekly dose; cited from earlier work

| Compound | clinical signs before or after dosing [1] | detectable drug levels up to (post-dosing) [1] | bioavailability, subcutaneous route over IV, estimated in human trials [2] [%] |
| --- | --- | --- | --- |
| CC[C@H](C)[C@H](NC(=O)[C@H](Cc1ccccc1)NC(=O)[C@H](CCC(=O)O)NC(=O)[C@H](CCCCNC(=O)COCCOCCNC(=O)COCCOCCNC(=O)CC[C@H](NC(=O)CCCCCCCCCCCCCCCCC(=O)O)C(=O)O)NC(=O)[C@H](C)NC(=O)[C@H](C)NC(=O)[C@H](CCC(N)=O)NC(=O)CNC(=O)[C@H](CCC(=O)O)NC(=O)[C@H](CC(C)C)NC(=O)[C@H](Cc1ccc(O)cc1)NC(=O)[C@H](CO)NC(=O)[C@H](CO)NC(=O)[C@@H](NC(=O)[C@H](CC(=O)O)NC(=O)[C@H](CO)NC(=O)[C@@H](NC(=O)[C@H](Cc1ccccc1)NC(=O)[C@@H](NC(=O)CNC(=O)[C@H](CCC(=O)O)NC(=O)C(C)(C)NC(=O)[C@@H](N)Cc1cnc[nH]1)[C@@H](C)O)[C@@H](C)O)C(C)C)C(=O)N[C@@H](C)C(=O)N[C@@H](Cc1c[nH]c2ccccc12)C(=O)N[C@@H](CC(C)C)C(=O)N[C@H](C(=O)N[C@@H](CCCNC(=N)N)C(=O)NCC(=O)N[C@@H](CCCNC(=N)N)C(=O)NCC(=O)O)C(C)C [semaglutide] | No significant clinical signs were observed | up to 10 days | – |
| adalimumab | – | – | 64 |
